ChEMBL document CHEMBL1201862, “PubChem BioAssay data set” (2004)
Activity calls are given as the source filed them. Rule as the data show it, for most assays here: actives have a measured EC50 and inactives only a lower limit.

Key:
[1] = molecular target: T1, Heat shock factor protein 1 (Mus musculus, UniProt P38532); assay: inhibition of MG132-induced HSE-luciferase signal, confirmation, cell-based, NIH3T3, luminescence, dose retest (AID 2382); format: functional;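 also: NIH3T3 fibroblasts with HSF1-driven luciferase reporter stressed by proteasome inhibitor MG132; luminescence from HSF1-driven luciferase expression after 8 hours of MG132 stress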
T1 sequence (P38532 whole entry): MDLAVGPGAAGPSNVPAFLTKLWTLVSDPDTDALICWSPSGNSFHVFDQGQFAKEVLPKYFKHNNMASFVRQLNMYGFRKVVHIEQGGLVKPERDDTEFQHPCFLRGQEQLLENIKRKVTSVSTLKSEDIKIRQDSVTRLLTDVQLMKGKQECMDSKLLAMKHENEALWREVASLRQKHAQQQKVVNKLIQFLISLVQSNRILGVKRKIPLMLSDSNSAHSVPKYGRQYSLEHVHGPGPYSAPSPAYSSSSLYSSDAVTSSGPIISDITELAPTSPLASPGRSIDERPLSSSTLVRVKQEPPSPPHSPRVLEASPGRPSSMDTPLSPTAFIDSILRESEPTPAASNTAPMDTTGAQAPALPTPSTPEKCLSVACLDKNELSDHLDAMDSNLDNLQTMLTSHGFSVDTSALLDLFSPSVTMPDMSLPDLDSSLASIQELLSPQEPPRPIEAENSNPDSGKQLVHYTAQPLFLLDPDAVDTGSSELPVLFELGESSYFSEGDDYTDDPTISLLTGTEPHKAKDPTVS

[2] = molecular target: T2, Replicative DNA helicase DnaB (Mycobacterium tuberculosis, UniProt P9WMR3); assay: DnaB intein splicing inhibitors, dose response, biochemical, cell-free fluorescence (AID 449749); format: functional
T2 sequence (P9WMR3 whole entry): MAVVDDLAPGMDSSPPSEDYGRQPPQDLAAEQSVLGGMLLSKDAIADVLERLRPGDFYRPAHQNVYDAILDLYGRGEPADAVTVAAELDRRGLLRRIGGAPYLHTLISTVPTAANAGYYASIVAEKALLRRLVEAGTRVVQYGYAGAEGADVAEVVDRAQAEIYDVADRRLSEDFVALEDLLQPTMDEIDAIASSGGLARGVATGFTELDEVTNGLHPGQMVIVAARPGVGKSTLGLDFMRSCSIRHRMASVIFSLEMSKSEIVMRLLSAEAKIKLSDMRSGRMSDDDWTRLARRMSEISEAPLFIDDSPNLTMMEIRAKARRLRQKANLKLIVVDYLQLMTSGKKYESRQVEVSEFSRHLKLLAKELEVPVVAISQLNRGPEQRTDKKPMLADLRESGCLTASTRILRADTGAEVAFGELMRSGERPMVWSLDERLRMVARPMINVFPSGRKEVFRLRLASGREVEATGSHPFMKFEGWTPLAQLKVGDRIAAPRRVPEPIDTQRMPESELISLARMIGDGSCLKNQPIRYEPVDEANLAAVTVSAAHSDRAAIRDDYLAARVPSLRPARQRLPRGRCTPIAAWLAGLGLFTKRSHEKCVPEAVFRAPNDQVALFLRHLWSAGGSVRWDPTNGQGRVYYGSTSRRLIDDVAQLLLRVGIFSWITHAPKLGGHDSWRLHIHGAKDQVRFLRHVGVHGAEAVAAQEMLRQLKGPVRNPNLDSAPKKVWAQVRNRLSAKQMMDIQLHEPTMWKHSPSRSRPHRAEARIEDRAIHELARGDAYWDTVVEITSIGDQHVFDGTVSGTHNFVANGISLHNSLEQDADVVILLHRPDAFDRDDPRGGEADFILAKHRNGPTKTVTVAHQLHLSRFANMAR

Protein RecA = molecular target: T3, Protein RecA (Mycobacterium tuberculosis, UniProt P9WHJ3); assay: Fluorescence Cell-Free Homogeneous Dose Retest to Identify Inhibitors of RecA-Intein Splicing Activity. [Related pubchem assays (depositor defined):AID2097, AID2223, AID489010, AID492950]; format: functional
T3 sequence (P9WHJ3 whole entry): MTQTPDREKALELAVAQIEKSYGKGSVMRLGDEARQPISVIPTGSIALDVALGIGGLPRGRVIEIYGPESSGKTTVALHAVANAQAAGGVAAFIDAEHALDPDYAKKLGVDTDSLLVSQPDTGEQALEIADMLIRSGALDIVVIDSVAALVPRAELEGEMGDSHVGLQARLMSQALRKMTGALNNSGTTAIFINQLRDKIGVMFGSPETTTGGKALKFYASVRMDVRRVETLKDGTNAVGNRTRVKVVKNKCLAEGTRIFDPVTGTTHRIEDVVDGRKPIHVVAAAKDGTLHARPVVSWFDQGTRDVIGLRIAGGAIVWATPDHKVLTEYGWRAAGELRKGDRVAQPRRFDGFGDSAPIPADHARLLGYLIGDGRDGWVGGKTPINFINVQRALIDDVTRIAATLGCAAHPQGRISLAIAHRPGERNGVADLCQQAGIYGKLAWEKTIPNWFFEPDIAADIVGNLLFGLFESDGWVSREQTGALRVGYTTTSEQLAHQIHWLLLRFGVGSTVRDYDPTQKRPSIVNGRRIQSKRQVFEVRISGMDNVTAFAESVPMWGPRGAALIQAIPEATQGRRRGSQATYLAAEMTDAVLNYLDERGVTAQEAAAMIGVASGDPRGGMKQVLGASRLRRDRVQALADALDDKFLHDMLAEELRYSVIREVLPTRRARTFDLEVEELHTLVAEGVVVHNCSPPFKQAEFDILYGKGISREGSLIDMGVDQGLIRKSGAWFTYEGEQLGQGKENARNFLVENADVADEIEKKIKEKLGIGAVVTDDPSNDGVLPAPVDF

[3] = molecular target: T4, Corticotropin-releasing factor receptor 2/Corticotropin-releasing factor-binding protein (Homo sapiens, UniProt P24387+Q13324); assay: Dose Response confirmation of uHTS hits for small molecule antagonists of the CRF-binding protein and CRF-R2 receptor complex.; format: functional; conditions: read-out: IC50_Mean
T4 sequence (Q13324 whole entry): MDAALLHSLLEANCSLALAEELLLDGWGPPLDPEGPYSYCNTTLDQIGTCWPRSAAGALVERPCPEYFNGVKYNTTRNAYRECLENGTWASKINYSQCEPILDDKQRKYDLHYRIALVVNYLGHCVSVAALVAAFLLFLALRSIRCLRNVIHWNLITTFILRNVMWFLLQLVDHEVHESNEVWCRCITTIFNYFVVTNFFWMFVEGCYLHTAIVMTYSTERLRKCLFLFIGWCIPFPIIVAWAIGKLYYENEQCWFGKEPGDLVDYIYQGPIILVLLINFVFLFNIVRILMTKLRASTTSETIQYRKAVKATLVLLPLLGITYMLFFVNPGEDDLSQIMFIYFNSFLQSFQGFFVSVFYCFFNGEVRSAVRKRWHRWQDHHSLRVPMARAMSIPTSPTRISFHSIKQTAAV
T4 sequence (P24387 whole entry): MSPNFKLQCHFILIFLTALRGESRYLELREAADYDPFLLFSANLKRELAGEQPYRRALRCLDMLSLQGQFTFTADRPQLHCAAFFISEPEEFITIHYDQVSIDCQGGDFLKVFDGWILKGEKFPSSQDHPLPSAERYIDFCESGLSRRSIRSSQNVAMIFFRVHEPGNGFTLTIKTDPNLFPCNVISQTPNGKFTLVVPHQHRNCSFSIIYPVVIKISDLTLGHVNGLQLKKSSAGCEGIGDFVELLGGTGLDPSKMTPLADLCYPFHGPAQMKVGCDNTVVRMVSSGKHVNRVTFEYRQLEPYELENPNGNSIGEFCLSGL

[4] = molecular target: T4, Corticotropin-releasing factor receptor 2/Corticotropin-releasing factor-binding protein; assay: activators of CRF receptor 2 with binding protein – uHTS hits, confirmation (AID 602473); format: functional; conditions: read-out: EC50_Mean
[5] = Luminescence Cell-Based Dose Response HTS to Identify Activators of Luciferase Translation or Activity in H4 […] Cells. [Related pubchem assays: 1829 (Project Summary), 1814 (Primary HTS)]; format: functional
H4 = assay: Luminescence Cell-Based Dose Response HTS to Identify Activators of 5'UTR Stem-Loop Driven Prion Protein mRNA Translation in H4 Neuroglioblastoma Cells. [Related pubchem assays: 1829 (Project Summary), 1814 (Primary HTS)]; format: functional; conditions: Homo sapiens
[6] = molecular target: T5, Rac GTPase-activating protein 1 (Homo sapiens, UniProt Q9H0H5); assay: MgcRacGAP GTPase-activating activity inhibitors, confirmation, biochemical, ADP Hunter fluorescence, primary and confirmatory (AID 624330); format: functional
T5 sequence (Q9H0H5 whole entry): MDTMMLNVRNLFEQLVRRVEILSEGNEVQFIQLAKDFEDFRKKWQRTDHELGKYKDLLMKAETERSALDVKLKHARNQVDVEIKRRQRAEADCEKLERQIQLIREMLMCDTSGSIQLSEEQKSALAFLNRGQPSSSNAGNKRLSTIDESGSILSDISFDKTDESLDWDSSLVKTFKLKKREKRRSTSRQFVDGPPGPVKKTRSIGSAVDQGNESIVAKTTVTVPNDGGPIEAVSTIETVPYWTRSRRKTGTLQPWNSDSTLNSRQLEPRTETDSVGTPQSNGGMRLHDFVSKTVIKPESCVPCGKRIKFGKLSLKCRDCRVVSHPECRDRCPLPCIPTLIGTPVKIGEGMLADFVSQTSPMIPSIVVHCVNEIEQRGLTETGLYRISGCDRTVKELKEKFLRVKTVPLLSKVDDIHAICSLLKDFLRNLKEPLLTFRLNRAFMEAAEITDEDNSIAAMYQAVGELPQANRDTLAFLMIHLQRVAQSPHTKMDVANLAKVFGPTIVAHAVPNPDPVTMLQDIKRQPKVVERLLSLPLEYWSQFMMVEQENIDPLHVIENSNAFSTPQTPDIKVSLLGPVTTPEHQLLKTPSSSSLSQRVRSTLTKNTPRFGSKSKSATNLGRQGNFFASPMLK

Cytochrome P450 1A2 = molecular target: T6, Cytochrome P450 1A2 (Homo sapiens, UniProt P05177);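 also: PubChem cytochrome P450 panel assay, CYP1A2 panel member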
T6 sequence (P05177 whole entry): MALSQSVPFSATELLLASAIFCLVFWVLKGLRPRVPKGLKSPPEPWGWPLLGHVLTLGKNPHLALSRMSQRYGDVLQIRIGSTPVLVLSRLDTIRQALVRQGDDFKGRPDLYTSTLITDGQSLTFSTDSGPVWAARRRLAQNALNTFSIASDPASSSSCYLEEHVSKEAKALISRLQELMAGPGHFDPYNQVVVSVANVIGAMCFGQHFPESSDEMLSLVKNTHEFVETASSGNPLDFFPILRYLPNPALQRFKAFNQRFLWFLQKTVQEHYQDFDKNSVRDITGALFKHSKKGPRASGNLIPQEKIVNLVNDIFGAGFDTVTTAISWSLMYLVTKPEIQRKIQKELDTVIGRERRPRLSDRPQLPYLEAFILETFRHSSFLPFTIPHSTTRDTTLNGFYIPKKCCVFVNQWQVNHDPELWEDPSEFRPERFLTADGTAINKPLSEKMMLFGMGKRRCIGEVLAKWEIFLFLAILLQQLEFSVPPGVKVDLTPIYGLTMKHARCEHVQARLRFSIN

## COc1cccc(N2CCN(C(S)=Nc3cc(C)cc(C)c3)CC2)c1
[1]
  EC50: 94.4 µM (active)

## CCOc1ccc2nc(NC(=O)/C=C/c3ccc4c(c3)OCO4)sc2c1
[1]
  EC50: > 195 µM (not active)

## Cc1n[nH]c2c1C(c1c(C)nn(-c3ccccc3)c1C)C(C#N)=C(N)O2 (stereo not given)
[2]
  AC50: 18.6 µM (active)
Protein RecA
  EC50: 12.5 µM (active)

## O=C(CC1CCCCC1)NCc1ccccn1
[1]
  EC50: > 195 µM (not active)

## COc1ccc(N2CCN(c3oc(Cc4ccccc4)nc3C#N)CC2)cc1
[1]
  EC50: > 195 µM (not active)

## CN1N=C2c3ccccc3CCC2C1c1ccc(C(F)(F)F)cc1 (stereo not given)
[1]
  EC50: 79.4 µM (active)

## CCOC1(OCC)C(c2ccc(Cl)cc2)C(C#N)(C#N)C1(OCC)OCC (stereo not given)
[2]
  AC50: 148 µM (active)
Protein RecA
  EC50: > 380 µM (inconclusive)

## CC(C)(C)c1cnnn1-c1ccc(C(=O)CCl)cc1
[2]
  AC50: 4.17 µM (active)
Protein RecA
  EC50: 2.89 µM (active)

## CCOC(=O)/C(C#N)=C1/SC(C)C(=O)N1c1ccc(Br)cc1 (stereo not given)
[2]
  AC50: 21 µM (active)
Protein RecA
  EC50: 11.1 µM (active)

## CCCCOc1cccc(C2C(C(=O)c3cccs3)=C(O)C(=O)N2Cc2cccnc2)c1 (stereo not given)
[1]
  EC50: > 195 µM (not active)

## Cc1ccccc1C(=O)NCC(=O)OC1CCCCC1=O (stereo not given)
[3]
  IC50: > 47.1 µM (inactive)
[4]
  EC50: > 53 µM (inactive)

## Cn1c2ccccc2c2cnn(CC(=O)N3CCC4(CC3)OCCO4)c(=O)c21
[1]
  EC50: 39.3 µM (active)

## COc1cc2c(cc1OC)C(/C=C(\O)c1ccc(C)cc1)=NCC2
[1]
  EC50: > 195 µM (not active)

## Cc1ccc(CNC(=O)CCC(=O)c2cccs2)cc1
[3]
  IC50: > 47.1 µM (inactive)
[4]
  EC50: > 53 µM (inactive)

## Cc1ccc(N(CC(=O)Nc2ccc(-c3nc4ccc(C)cc4s3)cc2)S(C)(=O)=O)cc1
[5]
  EC50: 1.19 µM (active)
H4
  EC50: > 120 µM (not active)

## Cc1ccc(OCCC(=O)OCC(=O)Nc2ccc(N3CCOCC3)cc2)cc1
[1]
  EC50: > 195 µM (not active)

## COc1cccc(OC)c1C(=O)N1CCN(Cc2cccnc2)CC1
[3]
  IC50: > 47.1 µM (inactive)
[4]
  EC50: > 53 µM (inactive)
[6]
  IC50: 203 µM (active)

## CCC(C)c1ccc(S(=O)(=O)N2CCN(CC(O)COCC3CCCO3)CC2)cc1 (stereo not given)
[3]
  IC50: > 47.1 µM (inactive)
[4]
  EC50: > 53 µM (inactive)

## Cc1ccc(C(=O)C2C(c3ccc(-c4ccccc4[N+](=O)[O-])o3)NC(=O)NC2(O)C(F)(F)F)cc1 (stereo not given)
[2]
  AC50: 5.13 µM (active)
Protein RecA
  EC50: 11.6 µM (active)

## CCOC(=O)N1CCC(c2cc(=O)n(-c3ccccc3)[nH]2)CC1
[2]
  AC50: 3.66 µM (active)
Protein RecA
  EC50: 2.51 µM (active)

## Cc1ccc(S(=O)(=O)N/N=C/c2c(C)nn(-c3ccccc3)c2C)cc1
[1]
  EC50: > 195 µM (not active)

## NCCCC(=O)O [GAMMA-AMINOBUTYRIC ACID]
[1]
  EC50: > 195 µM (not active)
Cytochrome P450 1A2
  AC50: 31.6 µM (inconclusive)
